Like-named read-outs stand apart in the source and are kept apart here.

One data set deals with T1, RNA PolII (Homo sapiens, UniProt P24928+P30876).
T1 construct: purchased as part of the HeLaScribe nuclear extract in vitro transcription system kit; purchased Promega (Madison, WI); host or cells: HeLa nuclear extract (endogenous enzyme)
Briefly: Inhibition of RNA PolII (HeLaScribe nuclear extract transcription). To be noted: nucleotide analogs (Table 6); read-out: Mean IC50 ± SD for RNA PolII. It counts as biochemical. From the text:
Activated fish sperm DNA was purchased from USB/Affymetrix (Santa Clara, CA) and used as a template for the DNA polymerases alpha, beta, and gamma. The DNA template used in the RNA Pol II assay was a 1,188-bp restriction fragment containing the cytomegalovirus (CMV) immediate early promoter (Promega, Madison, WI). The RNA and DNA oligonucleotides used in the mitochondrial RNA polymerase assay (see Table S1 in the supplemental material) were synthesized and PAGE purified by Thermo Scientific/Dharmacon (Lafayette, CO). RNA primer R12 was 5′-^32P-phosphorylated with [γ-^32P]ATP (3,000 Ci/mmol) and T4 kinase (New England BioLabs, Ipswich, MA).
(§1) Human DNA polymerase alpha, isolated from HeLa cell extracts, was from CHIMERx (Madison, WI). Recombinant human DNA polymerase beta, expressed in E. coli, was a gift from Zucai Suo at The Ohio State University. Recombinant human DNA polymerase gamma (including both the large subunit and the small subunit) was cloned, expressed, and purified from insect cells by Gilead Sciences (Foster City, CA) ([13]). RNA PolII was purchased as part of the HeLaScribe nuclear extract in vitro transcription system kit from Promega (Madison, WI). The recombinant human PolRMT and the transcription factors mitochondrial transcription factor A (mtTFA) and B2 (mtTFB2) were purchased from Enzymax (Lexington, KY). FLAG epitope-tagged RNA PolI and PolIII complexes were isolated from rat NSN1 cells and HeLa cells, respectively ([17], [18]). The inhibition of DNA polymerases alpha, beta, and gamma, PolRMT, and PolII and the rate of single-nucleotide incorporation by PolRMT have been described previously in detail ([12], [13], [19]). Inhibition of RNA PolI and PolIII was studied using published methods ([20], [21]). All concentrations were final unless noted otherwise. For the RNA PolI inhibition assay, a reaction mixture containing 50 mM HEPES (pH 7.9), 20% glycerol, 100 mM KCl, 1 mM dithiothreitol (DTT), 50 μg/ml calf thymus DNA, 4 mM MgCl2, 5 or 80 μM UTP (0.25 μl of [5,6-^3H]UTP, >25 Ci/mmol; PerkinElmer), 1 mM noncompeting NTP, competing NTP (5 μM for GTP, CTP, and UTP and 25 μM for ATP), and various concentrations (0 to 500 μM) of NTP analogs was preincubated at 30°C for 5 min. […] After incubation at 30°C for 20 min to 1 h, the reactions were terminated by pipetting the mixtures onto DEAE-cellulose discs (DE81; Whatman), and the products analyzed as described previously ([20], [21]).

The target of the next data set is T2, recombinant human PolRMT (Homo sapiens, UniProt O00411).
T2 construct: purchased Enzymax (Lexington, KY)
The data set is described as follows: Inhibition of PolRMT-catalyzed RNA synthesis. It counts as biochemical. To be noted: read-out: Mean IC50 ± SD for PolRMT.
Excerpt: Activated fish sperm DNA was purchased from USB/Affymetrix (Santa Clara, CA) and used as a template for the DNA polymerases alpha, beta, and gamma. […] The RNA and DNA oligonucleotides used in the mitochondrial RNA polymerase assay (see Table S1 in the supplemental material) were synthesized and PAGE purified by Thermo Scientific/Dharmacon (Lafayette, CO). RNA primer R12 was 5′-^32P-phosphorylated with [γ-^32P]ATP (3,000 Ci/mmol) and T4 kinase (New England BioLabs, Ipswich, MA).
as §1, with “otherwise.” for “otherwise. For the RNA PolI inhibition assay, a reaction mixture containing 50 mM HEPES (pH 7.9), 20% glycerol, 100 mM KCl, 1 mM dithiothreitol (DTT), 50 μg/ml calf thymus DNA, 4 mM MgCl2, 5 or 80 μM UTP (0.25 μl of [5,6-^3H]UTP, >25 Ci/mmol; PerkinElmer), 1 mM noncompeting NTP, competing NTP (5 μM for GTP, CTP, and UTP and 25 μM for ATP), and various concentrations (0 to 500 μM) of NTP analogs was preincubated at 30°C for 5 min.”

In a further data set the target is T3, RNA PolI (Rattus norvegicus, UniProt O54889).
T3 construct: complexes were isolated from rat NSN1 cells and HeLa cells, respectively; made in house; host or cells: rat NSN1 cells expressing a FLAG-tagged Pol I subunit
Briefly: RNA PolI inhibition assay. It counts as biochemical. To be noted: NTP analogs 0 to 500 μM; read-out: Mean IC50 ± SD for RNA PolI.
Excerpt: as §1

The target of a further data set is T4, RNA PolIII (Homo sapiens, UniProt O14802+Q9NW08).
T4 construct: complexes were isolated from rat NSN1 cells and HeLa cells, respectively; made in house; host or cells: HeLa cells expressing a FLAG-tagged Pol III subunit
Briefly: RNA PolIII inhibition assay. The format is biochemical. Conditions: competing NTP 100 μM CTP and GTP, 500 μM ATP; read-out: Mean IC50 ± SD for RNA PolIII.
Excerpt: as §1
The RNA PolIII inhibition assay was conducted in a similar manner, except that the concentrations of the competing NTP were modified to 100 μM for CTP and GTP and 500 μM for ATP to compensate for the low assay signal at lower NTP concentrations.

Data set [1] has as its system RNA transcription products from PolI (preribosome), PolII (myc), and PolRMT (ATP6) in PC-3 cells. The data set is described as follows: RNA transcripts in PC-3 cells by RT-PCR. The format is cell-based, human. Conditions: 5 μM, 1-day treatment. How it is done:
CX-5461, a known specific RNA PolI inhibitor, was used as the positive control ([25]). The growth medium was aspirated and replaced with 200 μl of 100 μM BMS-986094, 5 μM CX-5461, or DMSO control prepared in growth medium. At selected time points (0.5, 1, 4, 8, and 24 h), duplicate wells of the compounds and DMSO control were aspirated, the cells were washed 1× with PBS (pH 7.4), and 100 μl of RNA lysis buffer was added (Promega, Sunnyvale, CA). RNA was purified using the Wizard SV 96 total RNA isolation kit (Promega) and eluted in 100 μl of nuclease-free water. The TaqMan RNA-to-Ct 1-step kit (ABI/Life Technologies) was used for reverse transcription-quantitative PCR (RT-qPCR) amplification and quantification, using the 7900HT Fast real-time PCR system (ABI) under the following conditions: 15 min at 48°C for reverse transcription and 10 min at 95°C for activation, followed by 40 cycles of 15 s at 95°C for denaturation and 1 min at 60°C for annealing and extension. […] Transcripts were quantified relative to the standard curves, and the results expressed as the percentages of the average value of DMSO control wells.

Data set [2] is described as follows: Bone marrow erythroid progenitor colony assay, 14 days. It counts as cell-based, human. Conditions: human, human bone marrow erythroid progenitors, read-out: Mean CC50 ± SD in Bone marrow cells Erythroid.
The nature of data set [3]: Bone marrow myeloid progenitor colony assay, 14 days. The format is cell-based, human. Conditions: human, human bone marrow myeloid progenitors, read-out: Mean CC50 ± SD in Bone marrow cells Myeloid.
Data set [4] is described as follows: Cytotoxicity in primary rat neonatal cardiomyocytes, 5 days. The format is cell-based. To be noted: Sprague Dawley, primary rat neonatal cardiomyocytes, 5-day treatment, read-out: CC50 (mean ± standard deviation) in primary rat cardiomyocytes.
Data set [5] has as its system mitochondrial DNA-encoded cytochrome c oxidase (COX-1). Briefly: Mitochondrial protein synthesis assay (COX-1, MitoBiogenesis in-cell ELISA) in PC-3 cells. It counts as cell-based, human. To be noted: PC-3 cells, 5-day treatments. How it is done: (§2) PC-3 cells were treated with the compounds for 5 days and analyzed with the MitoTox MitoBiogenesis in-cell enzyme-linked immunosorbent assay (ELISA) kit (MitoSciences/Abcam, Eugene, Oregon) as described previously ([13]). The assay uses quantitative immunocytochemistry to measure the protein levels of nuclear DNA-encoded succinate dehydrogenase (SDH-A; complex II [succinate dehydrogenase]) and mitochondrial DNA-encoded cytochrome c oxidase (COX-1; complex IV [cytochrome c oxidase]) in cultured cells.
(In general: An ELISA detects its analyte on a solid surface through an enzyme-linked reagent.)

In data set [6] the test system is mitochondrial DNA-encoded cytochrome c oxidase (COX-1; complex IV) protein level. The description is as above. To be noted: human; PC-3 cells, COX-1, 5 days; read-out: Mean CC50 ± SD causing Mitochondrial toxicity: Protein synthesis. It counts as cell-based, human. How it is done: as §2
Data set [7] concerns nuclear DNA-encoded succinate dehydrogenase (SDH-A; complex II) protein level. The data set is described as follows: Nuclear protein synthesis (SDH-A, MitoBiogenesis in-cell ELISA) in PC-3 cells. It counts as cell-based, human. Conditions: human, read-out: Mean CC50 ± SD causing General cellular toxicity: Protein synthesis. As for the experimental part:
as §2

Data set [8] in a line: Cytotoxicity in quiescent PBMCs, 5 days. Conditions: human, quiescent PBMCs.
Method: Human peripheral blood mononuclear cells (PBMCs) were isolated from human buffy coats obtained from healthy volunteers (Stanford Blood Bank, Palo Alto, CA) using standard Ficoll separation and stimulated as described elsewhere ([13]) and were tested at both quiescent and stimulated stages. Quiescent PBMCs were stimulated with 10 units per ml of recombinant human interleukin 2 (hIL-2) and 1 μg per ml phytohemagglutinin P (PHA-P) for 48 h prior to drug treatment.
(§3) All cells were cultured at 37°C in a 5% CO2 incubator with 90% humidity unless noted otherwise. […] All cells were treated with the various compounds for 5 days, except for human erythroid and myeloid progenitors, which were treated for 14 days. After the incubation period, cell viability was measured by the addition of CellTiter Glo viability reagents (Promega, Madison, WI). The luminescence signal was quantified on an Envision luminescence plate reader (PerkinElmer, Waltham, MA) after incubation of the reagents and cells for 10 min at room temperature. […] CC50 values were calculated as the average of the results of three or four independent experiments.
Human peripheral blood mononuclear cells (PBMCs) were isolated from human buffy coats
obtained from normal healthy volunteers (Stanford Medical School Blood Center, Palo Alto,
CA). Total PBMCs were isolated from buffy coats using standard Ficoll separation and sterile
cellular isolation techniques performed in a bio-safety cabinet (1). Except where noted, the
procedure was carried out at room temperature. The final PBMCs pellet was resuspended in
Logan, UT), penicillin 100 units/mL and streptomycin 100 µg/mL (Gibco). For quiescent
PBMCs cultures, total cells were seeded in 96-well plates at a density of 1 x 10^6 cells per well, followed by immediate drug treatment. Stimulated PBMCs cultures were set up by seeding the freshly isolated PBMCs in T-175cm2 tissue culture flasks in 100 mL of RPMI containing the same components as the ones used for the quiescent PBMCs but with the addition of 10 units per mL of recombinant human interleukin-2 (hIL-2, Roche, Indianapolis, IN), and 1 µg per mL phytohemagglutinin-P (PHA-P, Sigma-Aldrich, St. Louis, MO) at density of 2  10^6 cells per mL for 48 hours at 37C in a 5% CO2 incubator with 90% humidity, prior to drug treatment.
Data set [9] is described as follows: Cytotoxicity in stimulated PBMCs, 5 days. Conditions: human, stimulated PBMCs.
Data set [10] is described as follows: Cytotoxicity in MT-4 T-cells, 5-day treatment. Conditions: human, MT-4 cells.
Method: (§4) Primary human hepatocytes were from Bioreclamation IVT (Westbury, NY) or Life Technologies (Carlsbad, CA).
as §3
Data set [11] in a line: Cytotoxicity in MRC5 fibroblasts, 5-day treatment. To be noted: human, MRC5 fibroblasts.
Method: as §3
Cell Culture and Cytotoxicity Studies
(§5) The Huh-7 cells were maintained in growth medium containing Dulbecco's Modified Eagle
(§6) Medium (DMEM, Cellgro) supplemented with 1% Nonessential Amino Acids (NEAA, Cellgro,
(§7) Manassas, VA), 10% fetal bovine serum (FBS, HyClone, Logan, UT) and 1% Penicillin-
(§8) streptomycin-glutamate (PSG, Invitrogen, Carlsbad, CA). The cells were passaged twice weekly
(§9) and maintained at 90% confluence densities.
(§10) The HepG2 cells were maintained in Eagle’s Minimum Essential Medium (EMEM) from ATCC
(§11) (Manassas, VA) supplemented with 10% FBS, 100 units/mL penicillin and 100 µg/mL
(§12) streptomycin (P/S) (Gibco). The cells were passaged twice weekly and maintained at 90%
(§13) The PC-3 cells were maintained in Kaighn’s F12 medium (Gibco, Carlsbad, CA) supplemented
(§14) with 10% FBS (HyClone, Logan, UT), 100 units/mL penicillin and 100 µg/mL streptomycin
(§15) (P/S) (Gibco). The cells were passaged twice weekly and maintained at 90% confluence. Cells
(§16) between passages 4 and 15 were used in the assays.
(§17) The fibroblast cell line MRC-5 cell line derived from normal lung tissue, was purchased from
(§18) ATCC (Manassas, VA) and cultured in Minimum Essential Medium (MEM) (Cellgro, Manassas,
(§19) VA) supplemented with 10% FBS (HyClone, Logan, UT) and 1% PSG (Invitrogen). The cells
(§20) were passaged twice weekly and maintained at 90% confluence densities.
The nature of data set [12]: Cytotoxicity in primary human hepatocytes, 5 days. To be noted: human, primary human hepatocytes.
Method: as §4, §3
The nature of data set [13]: Cytotoxicity / ATP level in PC-3 cells, 5-day treatment. Conditions: human, PC-3 cells.
Method: as §3
Cell Culture and Cytotoxicity Studies
as §5, §6, §7, §8, §9, §10, §11, §12, §13, §14, §15, §16, §17, §18, §19, §20
Data set [14] can be described thus: Cytotoxicity in HepG2 (galactose) cells, 5-day treatment. Conditions: human, HepG2 cells (galactose).
Data set [15] can be described thus: Cytotoxicity in Huh7 cells, 5-day treatment (CellTiter Glo). To be noted: human, Huh-7 cells.
The subject of data set [16] is mitochondrial spare respiratory capacity in PC-3 cells. The data set is described as follows: Oxygen consumption rate / spare respiratory capacity in PC-3 cells. Conditions: PC-3 cells, 3-day treatments.
In data set [17] the test system is mitochondrial spare respiratory capacity. The data set is described as above. To be noted: human, PC-3 cells, pH 7.4.

T2 sequence (O00411 42-1230): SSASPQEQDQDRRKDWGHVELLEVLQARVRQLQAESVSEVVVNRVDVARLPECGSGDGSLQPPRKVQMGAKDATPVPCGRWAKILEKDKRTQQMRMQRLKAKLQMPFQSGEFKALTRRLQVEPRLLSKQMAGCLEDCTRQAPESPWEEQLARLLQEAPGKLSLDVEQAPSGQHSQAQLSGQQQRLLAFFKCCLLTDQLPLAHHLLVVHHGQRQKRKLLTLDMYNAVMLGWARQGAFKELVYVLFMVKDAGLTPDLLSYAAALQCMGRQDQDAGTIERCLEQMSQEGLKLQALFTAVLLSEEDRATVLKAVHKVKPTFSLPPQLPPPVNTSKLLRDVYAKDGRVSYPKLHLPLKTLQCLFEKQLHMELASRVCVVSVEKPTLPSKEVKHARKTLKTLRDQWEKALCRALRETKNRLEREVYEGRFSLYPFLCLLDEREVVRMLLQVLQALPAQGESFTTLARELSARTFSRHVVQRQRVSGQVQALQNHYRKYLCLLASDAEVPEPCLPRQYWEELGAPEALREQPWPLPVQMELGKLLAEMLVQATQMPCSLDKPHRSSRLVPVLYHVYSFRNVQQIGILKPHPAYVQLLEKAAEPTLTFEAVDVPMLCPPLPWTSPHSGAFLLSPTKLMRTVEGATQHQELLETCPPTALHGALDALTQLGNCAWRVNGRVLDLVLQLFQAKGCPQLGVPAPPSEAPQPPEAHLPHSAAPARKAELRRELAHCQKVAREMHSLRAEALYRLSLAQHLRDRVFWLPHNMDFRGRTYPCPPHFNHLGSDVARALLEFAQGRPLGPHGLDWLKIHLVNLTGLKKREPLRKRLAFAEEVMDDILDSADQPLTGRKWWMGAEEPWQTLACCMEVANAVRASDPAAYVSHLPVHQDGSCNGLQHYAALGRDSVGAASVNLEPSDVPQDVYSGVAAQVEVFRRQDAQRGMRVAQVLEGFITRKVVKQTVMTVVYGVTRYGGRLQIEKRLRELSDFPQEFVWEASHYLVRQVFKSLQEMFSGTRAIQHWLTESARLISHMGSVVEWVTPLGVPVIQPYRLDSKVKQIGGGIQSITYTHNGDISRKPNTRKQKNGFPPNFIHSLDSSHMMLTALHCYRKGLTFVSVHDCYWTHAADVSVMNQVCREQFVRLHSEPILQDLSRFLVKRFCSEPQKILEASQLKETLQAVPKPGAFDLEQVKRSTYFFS
T3 sequence (O54889 whole entry): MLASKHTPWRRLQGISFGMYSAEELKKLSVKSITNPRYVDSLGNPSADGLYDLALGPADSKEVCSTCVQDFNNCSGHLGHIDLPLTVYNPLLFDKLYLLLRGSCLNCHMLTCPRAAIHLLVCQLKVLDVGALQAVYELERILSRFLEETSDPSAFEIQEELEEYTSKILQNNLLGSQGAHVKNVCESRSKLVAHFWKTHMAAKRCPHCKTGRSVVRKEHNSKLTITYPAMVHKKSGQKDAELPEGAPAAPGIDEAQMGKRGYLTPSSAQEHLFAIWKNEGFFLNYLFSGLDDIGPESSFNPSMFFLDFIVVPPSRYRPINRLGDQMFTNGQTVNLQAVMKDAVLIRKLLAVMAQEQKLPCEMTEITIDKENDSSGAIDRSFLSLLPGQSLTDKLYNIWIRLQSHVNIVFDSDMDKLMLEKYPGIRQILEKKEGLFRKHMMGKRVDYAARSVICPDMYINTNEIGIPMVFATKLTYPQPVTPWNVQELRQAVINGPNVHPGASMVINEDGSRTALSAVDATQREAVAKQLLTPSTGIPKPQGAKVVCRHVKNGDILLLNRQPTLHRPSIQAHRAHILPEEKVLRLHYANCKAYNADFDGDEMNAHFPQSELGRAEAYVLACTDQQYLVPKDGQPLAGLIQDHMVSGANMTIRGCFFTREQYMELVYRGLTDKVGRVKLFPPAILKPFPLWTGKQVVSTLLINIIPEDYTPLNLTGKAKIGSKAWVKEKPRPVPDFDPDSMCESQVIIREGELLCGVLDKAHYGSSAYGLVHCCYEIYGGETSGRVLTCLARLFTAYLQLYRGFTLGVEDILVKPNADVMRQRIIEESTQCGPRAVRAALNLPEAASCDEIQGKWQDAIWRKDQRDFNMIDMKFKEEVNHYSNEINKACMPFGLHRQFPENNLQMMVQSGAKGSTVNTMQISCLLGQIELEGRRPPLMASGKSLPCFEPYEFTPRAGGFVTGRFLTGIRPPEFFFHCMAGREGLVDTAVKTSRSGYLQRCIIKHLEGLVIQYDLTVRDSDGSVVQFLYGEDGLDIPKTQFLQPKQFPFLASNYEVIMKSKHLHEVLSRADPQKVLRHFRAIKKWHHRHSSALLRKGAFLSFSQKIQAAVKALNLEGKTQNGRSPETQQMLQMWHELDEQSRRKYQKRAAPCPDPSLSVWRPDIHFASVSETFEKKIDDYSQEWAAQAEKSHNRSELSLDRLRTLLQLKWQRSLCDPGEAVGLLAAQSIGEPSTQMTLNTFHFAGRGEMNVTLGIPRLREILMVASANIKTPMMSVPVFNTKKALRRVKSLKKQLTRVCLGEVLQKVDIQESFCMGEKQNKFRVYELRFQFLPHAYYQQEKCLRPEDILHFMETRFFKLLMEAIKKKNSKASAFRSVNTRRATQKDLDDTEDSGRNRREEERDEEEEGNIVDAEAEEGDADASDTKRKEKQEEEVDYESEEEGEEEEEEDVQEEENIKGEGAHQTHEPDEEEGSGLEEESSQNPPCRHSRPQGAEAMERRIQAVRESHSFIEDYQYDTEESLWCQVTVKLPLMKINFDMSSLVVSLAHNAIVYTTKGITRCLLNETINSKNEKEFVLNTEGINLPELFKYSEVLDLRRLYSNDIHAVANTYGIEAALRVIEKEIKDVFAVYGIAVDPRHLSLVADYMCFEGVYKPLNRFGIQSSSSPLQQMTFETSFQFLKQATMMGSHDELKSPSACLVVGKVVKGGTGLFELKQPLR

Regarding `C[C@@]1(O)[C@H](O)[C@@H](COP(=O)(O)OP(=O)(O)OP(=O)(O)O)O[C@H]1n1ccc(=O)[nH]c1=O` [2′CMeUTP], the IC50 (commonly the concentration needed to halve the response being measured) is more than 500000 nM at RNA PolII, 240000 ± 30000 nM at recombinant human PolRMT (nucleotide analogs (Table 6)), 690000 ± 230000 nM at RNA PolI and more than 500000 nM at RNA PolIII.

Take `Nc1nc2c(ncn2[C@@H]2O[C@H](COP(=O)(O)OP(=O)(O)OP(=O)(O)O)C[C@H]2O)c(=O)[nH]1` [3′deoxyGTP]: the IC50 at RNA PolII was more than 500000 nM; on recombinant human PolRMT (nucleotide analogs (Table 6)), 4200 ± 1400 nM; at recombinant human PolRMT (triphosphate form of the compound tested (Table 4)), 4200 ± 1400 nM; on RNA PolI, 25000 ± 2000 nM; at RNA PolIII, 104000 ± 20000 nM.

As for `Cc1cnc(CNC(=O)c2c(=O)c3ccc(N4CCCN(C)CC4)nc3n3c2sc2ccccc23)cn1` [CX-5461], the “relative levels of RNA transcripts (pre-rRNA, myc, mitochondrial ATP6)” value in [1] is “selectively decreased pre-rRNA but had no effect on the levels of myc and mitochondrial ATP6 RNAs”.

For the molecule `COc1ccc(C[C@H](N)C(=O)N[C@H]2[C@@H](O)[C@H](n3cnc4c(N(C)C)ncnc43)O[C@@H]2CO)cc1` [Puromycin], the CC50 (in general, the concentration at which the toxic effect on the cells reaches its halfway point) at 14 days turned out to be 360 ± 60 nM in [2] and 270 ± 40 nM in data set [3]. Also, the half-maximal cytotoxic concentration (CC50) at 5 days was determined as 330 ± 50 nM in [4]; 120 ± 10 nM in data set [6]; 150 ± 10 nM in data set [7]; 4500 ± 1900 nM in [8]; 1000 ± 200 nM in data set [9]; 160 ± 60 nM in data set [10]. Also, the CC50 at 5 days in data set [11] came out at 240 ± 50 nM; in data set [12], 1900 ± 800 nM; in data set [13], 220 ± 70 nM; in data set [14], 650 ± 180 nM; in [15], 520 ± 190 nM. Also, the “selectivity of effect on COX-1 versus SDH-A and ATP levels” value in [5] was “nonselective inhibitive effects on the COX-1, SDH-A, and ATP levels”. Besides, the “selectivity of effect on spare respiratory capacity versus DNA and ATP levels” value in [16] was “nonselective inhibition of the spare respiratory capacity, DNA, and ATP levels”. Further, the cytotoxic concentration (CC50) at 3 days in data set [17] stood at 490 ± 110 nM.

The values above are taken from article PMC4750701, “Role of Mitochondrial RNA Polymerase in the Toxicity of Nucleotide Inhibitors of Hepatitis C Virus” (Antimicrobial Agents and Chemotherapy, 2016).
